Assays:
Gastric Acid Secretion = assay: Histamine-stimulated gastric acid secretion in Heidenhain pouch dogs; format: in vivo, beagle dogs; settings: histamine s.c. 1 hour after drug administration
Method: Six male beagle dogs (13 to 17kg) with well-established Heidenhain pouches were used for the construction of gastric acid secretion response curves. Food was withheld but water allowed for 18 hours before each experiment. Histamine (60 Mg/kg/hr) was administered subcutaneously 1 hour after drug administration. The pouch secretion was allowed to drain into a collection vessel which was changed every 15 minutes. Gastric juice volume was recorded, and acid concentration was determined by titration with 0.05N NaOH up to pH 7.0 using an automatic titrator (Hiranuma Sangyo Co., COMTITE-7).

in vivo = assay: in vivo; set-up: species or system Fischer-rats; settings: rat, po
Method: That is, LD50(p.o.) of the compound was higher than 1,000 mg/kg.

CCCCCOc1cccn2c(CC#N)c(C)nc12 [Example 12, 3-Cyanomethyl-2-methyl-8-pentyloxyimidazo-[1,2-a]pyridine]
Gastric Acid Secretion Inhibitory Rate (%) Pouch Dog 3 mg/kg p.o. (Gastric Acid Secretion): 61%

Cc1nc2c(OCC3CCCCC3)cccn2c1CC#N [Example 11, 3-cyanomethyl-8-cyclohexylmethoxy-2-methylimidazo-[1,2-a]-pyridine]
Gastric Acid Secretion Inhibitory Rate (%) Pouch Dog 3 mg/kg p.o. (Gastric Acid Secretion): 67%

Cc1nc2c(OCc3ccccc3)cccn2c1CC#N [Known compound A, reference compound]
Gastric Acid Secretion Inhibitory Rate (%) Pouch Dog 3 mg/kg p.o. (Gastric Acid Secretion): 36%

CC(C)=CCOc1cccn2c(CC#N)c(C)nc12 [Example 16, 3-Cyanomethyl-2-methyl-8-[(3-methyl-2-butenyl)-oxy]imidazo[1,2-a]pyridine]
LD50 at 24 h (in vivo): > 1000 mg/kg | Gastric Acid Secretion Inhibitory Rate (%) Pouch Dog 3 mg/kg p.o. (Gastric Acid Secretion): 82%

C=CCOc1cccn2c(CC#N)c(C)nc12 [Known compound B, reference compound]
Gastric Acid Secretion Inhibitory Rate (%) Pouch Dog 3 mg/kg p.o. (Gastric Acid Secretion): 21%
